Test results taken from patent publication US20130274338A1, “PHARMACEUTICAL COMPOSITIONS COMPRISING DGLA, 15-OHEPA, AND/OR 15-HETRE AND METHODS OF REDUCING SEBUM PRODUCTION USING SAME” (priority 2012, published 2013).
≈ marks a conversion by molar mass, not a printed value.

System: P. acnes
Test: Agar dilution method, growth of P. acnes and MIC, single compounds
Assay type: cell-based, Propionibacterium acnes
Set-up: key to Growth Index Plate 1 / Growth Index Plate 2 / Growth Index Plate 3 / Growth Index Avg: +++: confluent growth (comparable to control); ++: less confluent growth; +: marked reduction in growth to multiple tiny, single colonies; −: no growth present
Details: for MIC: Cutibacterium acnes, read-out: MIC (mg/mL) as per P-11-0007 or P-11-0008 Addendum A
Protocol: Several compounds including fatty acids such as DGLA, 15-OHEPA, and 15-HETrE were tested to determine their capacity to inhibit the growth of P. acnes. In an exemplary method, an agar dilution method was used to determine the minimum inhibitory concentration (MIC) of each tested compound. Briefly, the agar dilution method involved preparing a series of concentrations of each compound (e.g., nicotinamide, benzoyl peroxide, adapalene, metronidazole, DGLA, 15-OHEPA, and 15-HETrE) in a Reinforced Clostridial Agar (RCA) media that facilitates growth of P. acnes under anaerobic conditions. An inoculum of P. acnes was prepared by incubation of P. acnes for approximately seven days at 35-37° C. to achieve a ≧1.0 OD600 inoculum of P. acnes in RCM broth. A portion of this inoculum was then added to the surface of each plate as a 10 μL spot and incubated at 35-37° C. for 72 hours or more. Growth of P. acnes was then observed and compared to control plates in which no compound has been added, and positive inhibition plates prepared with erythromycin. […] The growth of P. acnes in the presence of nicotinamide, benzoyl peroxide, adapalene, metronidazole, DGLA, 15-OHEPA, and 15-HETrE was determined with varying concentrations of the compound (see, Table 2). Next, the MIC was determined as the concentration at which a marked reduction (+) occurs in the appearance of growth on the test plate (as per Clinical and Laboratory Standards Institute M11-A7).

[1] = compound alone, MIC = concentration with marked reduction (+) of growth

Compound | MIC [1] [mg/mL] | Growth Index Avg (compound at 0.2 mg/mL) | Growth Index Plate 1 (compound at 0.2 mg/mL) | Growth Index Plate 2 (compound at 0.2 mg/mL) | Growth Index Plate 3 (compound at 0.2 mg/mL) | Growth Index Avg (compound at 0.4 mg/mL) | Growth Index Plate 1 (compound at 0.4 mg/mL) | Growth Index Plate 2 (compound at 0.4 mg/mL) | Growth Index Plate 3 (compound at 0.4 mg/mL) | Growth Index Avg (compound at 0.6 mg/mL) | Growth Index Plate 1 (compound at 0.6 mg/mL) | Growth Index Plate 2 (compound at 0.6 mg/mL) | Growth Index Plate 3 (compound at 0.6 mg/mL) | Growth Index Avg (compound at 0.8 mg/mL) | Growth Index Plate 1 (compound at 0.8 mg/mL) | Growth Index Plate 2 (compound at 0.8 mg/mL) | Growth Index Plate 3 (compound at 0.8 mg/mL) | Growth Index Avg (compound at 1.0 mg/mL) | Growth Index Plate 1 (compound at 1.0 mg/mL) | Growth Index Plate 2 (compound at 1.0 mg/mL) | other results
NC(=O)c1cccnc1 [Nicotinamide] | 10 to 15 (≈ 81.9 to 123 mM) |  |  |  |  |  |  |  |  |  |  |  |  |  |  |  |  |  |  |  | Growth Index Avg (compound at 1 mg/mL): +++; Growth Index Plate 1 (compound at 1 mg/mL): +++; Growth Index Plate 2 (compound at 1 mg/mL): +++; Growth Index Plate 3 (compound at 1 mg/mL): +++; Growth Index Avg (compound at 5 mg/mL): +++; Growth Index Plate 1 (compound at 5 mg/mL): +++; Growth Index Plate 2 (compound at 5 mg/mL): +++; Growth Index Plate 3 (compound at 5 mg/mL): +++; Growth Index Avg (compound at 10 mg/mL): ++; Growth Index Plate 1 (compound at 10 mg/mL): ++; Growth Index Plate 2 (compound at 10 mg/mL): ++; Growth Index Plate 3 (compound at 10 mg/mL): ++; Growth Index Avg (compound at 15 mg/mL): +; Growth Index Plate 1 (compound at 15 mg/mL): −; Growth Index Plate 2 (compound at 15 mg/mL): +; Growth Index Plate 3 (compound at 15 mg/mL): +; Growth Index Avg (compound at 25 mg/mL): −; Growth Index Plate 1 (compound at 25 mg/mL): −; Growth Index Plate 2 (compound at 25 mg/mL): −; Growth Index Plate 3 (compound at 25 mg/mL): −
O=C(OOC(=O)c1ccccc1)c1ccccc1 [Benzoyl Peroxide] | 0.6 to 0.8 (≈ 2.48 to 3.3 mM) | +++ | +++ | +++ | +++ | +++ | +++ | +++ | +++ | ++ | ++ | +++ | ++ | + | + | + | + | − | − | − | Growth Index Plate 3 (compound at 1.0 mg/mL): −
Cc1ncc([N+](=O)[O-])n1CCO [Metronidazole] | > 1 | +++ | +++ | +++ | +++ | +++ | +++ | +++ | +++ | +++ | +++ | +++ | +++ | +++ | +++ | +++ | +++ | +++ | +++ | ++ | Growth Index Plate 3 (compound at 1.0 mg/mL): +++
COc1ccc(-c2ccc3cc(C(=O)O)ccc3c2)cc1C12CC3CC(CC(C3)C1)C2 [Adapalene, 6-[3-(1-adamantyl)-4-methoxyphenyl]-2-naphthoic acid] | > 0.8 | +++ | +++ | +++ | +++ | +++ | +++ | +++ | +++ | ++ | ++ | ++ | +++ | ++ | ++ | ++ | ++ |  |  |  | MIC (mg/mL) as per P-11-0007 or P-11-0008 Addendum A [1]: > 0.8 mg/mL
